From EP0665223A1, “Antitumor agent, novel 3(2H)-pyridazinone derivatives and their preparation” (TAKEDA CHEMICAL INDUSTRIES, LTD., priority 1994, dated 1995)

Assays:
[1] = system: pancreatic cancer cell AsPC-1; assay: Suppressing proliferation of pancreatic cancer cell AsPC-1 in vitro (MTT, number of living cells); format: cell-based; conditions: Homo sapiens, ASPC1, 72 h, AsPC-1, RPMI 1640 medium, incubated 3 days with test compound
Protocol: (§1) A cell suspension of pancreatic cancer cell AsPC-1 (20000/ml) in RPMI 1640 medium (Flow Laboratories) supplemented with 10% of inactivated fetal calf serum, 1 mM of sodium pyruvate and 25 mM of HEPES [2-{4-(2-hydroxyethyl)-1-piperazinyl}ethanesulfonic acid] was added to 96-well micro-culture plates (50ul/well). The culture plates were incubated at 37°C in a 5% CO₂ incubator. On the following day, the solution of each test compound dissolved in dimethylformamide and diluted (3-fold steps) was added (50 ul/well), which was incubated for further 3 days. The culture broth containing the test compounds was eliminated, and the cells were washed, to which was added a solution of MTT pigment, and the number of living cells was calculated [Tada et al. J. Immunol. Methods, 93 p.157 (1986)]. The number of cells in the control group containing no test compound was assumed to be 100%, and the respective ratios of cell numbers in groups containing the respective test compounds were calculated to thereby determine the concentrations (IC₅₀ value) of the respective test compounds necessary to suppress the number of living cells to 50% of that of the control group.

[2] = system: pancreatic cancer cell strain PC-3; assay: Suppressing proliferation of PC-3 cells in vitro (MTT, number of living cells); format: cell-based; conditions: 96 h, PC-3, F-12K medium, incubated 4 days with test compound
Protocol: as §1
For the test of pancreatic cancer cell strain PC-3, the same method in the case of AcPC-1 was employed excepting the use of F-12K medium containing 10% inactivated fetal calf serum (Flow Laboratories) and change of the incubation period after adding the test compounds to 4 days, to thereby determine the IC₅₀ value (nm).

IC50 [1] [nM] | IC50 [2] [nM] | SMILES
33 | 2 | CC(C)(C)n1ncc(SCc2ccc(-c3csc(N)n3)cc2)c(Cl)c1=O [Compound 102]
230 | 52 | COc1cc(OC)nc(-c2ccc(COc3cnn(C(C)(C)C)c(=O)c3Cl)cc2)n1 [Compound 99, 2-t-butyl-4-chloro-5-[4-[2-(4,6-dimethoxy)pyrimidyl]]benzyloxy-3(2H)-pyridazinone]
85 | < 1.52 | Cc1c(OCc2ccc(-c3ccccn3)cc2)cnn(C(C)(C)C)c1=O [Compound 104, 2-t-butyl-4-methyl-5-[4-(2-pyridyl)]benzyloxy-3(2H)-pyridazinone]
770 | 110 | CC(C)(C)n1ncc(OCc2ccc(-c3ccnc(N)c3)cc2)c(Cl)c1=O [Compound 93, 5-[4-[4-(2-amino)pyridyl]benzyloxy]-2-t-butyl-4-chloro-3(2H)-pyridazinone]
11 | < 1.52 | CC(C)(C)n1ncc(SCc2ccc(OCc3ccc(F)cc3)nc2)c(Cl)c1=O [Compound 50, 2-t-butyl-4-chloro-5-[6-(4-fluorobenzyloxy)-3-pyridyl]methylthio-3(2H)-pyridazinone]
15 | < 1.52 | CC(C)(C)n1ncc(SCc2ccc3ccccc3c2)c(Cl)c1=O [Compound 4, 2-t-butyl-4-chloro-5-(2-naphthyl)methylthio-3(2H)pyridazinone]
29 | < 1.52 | CC(C)(C)n1ncc(SCc2ccc(OCc3ccccc3)cc2)c(Cl)c1=O [Compound 74, 5-(4-benzyloxybenzylthio)-2-t-butyl-4-chloro-3(2H)-pyridazinone]
9 | < 1.52 | Cc1c(SCc2ccc(C(C)(C)C)cc2)cnn(C(C)(C)C)c1=O [Compound 27, 2-t-butyl-5-(4-t-butyl)benzylthio-4-methyl-3(2H)pyridazinone]
67 | 45 | CC(C)(C)n1ncc(SC(CO)c2ccccc2)c(Cl)c1=O (stereo not shown) [Compound 48, 2-t-butyl-4-chloro-5-(2-hydroxy-1-phenyl) ethylthio-3(2H)-pyridazinone]
440 | 5 | CC(C)(C)n1ncc(OCc2ccc3ccccc3c2)c(Cl)c1=O [Compound 20, 2-t-butyl-4-chloro-5-(2-naphthyl)methyloxy-3(2H)pyridazinone]
280 | < 1.52 | CC(C)(C)n1ncc(OCc2ccc(-c3ncccn3)cc2)c(Cl)c1=O [Compound 97, 2-t-butyl-4-chloro-5-[4-(2-pyrimidyl)]benzyloxy-3(2H)-pyridazine]
12 | < 1.52 | CC(C)(C)n1ncc(SC(CO)c2ccc(-c3ccccc3)cc2)c(Cl)c1=O (stereo not shown) [Compound 85, 2-t-butyl-4-chloro-5-[2-hydroxy-1-(p-biphenyl)]ethylthio-3(2H)-pyridazinone]
16 | < 1.52 | CC(C)(C)n1ncc(SCc2ccc(-c3ncccn3)cc2)c(Cl)c1=O [Compound 96, 2-t-butyl-4-chloro-5-[4-(2-pyrimidyl)]benzylthio-3(2H)-pyridazine]
550 | 3 | CC(C)(C)n1ncc(SCc2ccc(-c3cc[nH]n3)cc2)c(Cl)c1=O [Compound 111, 2-t-butyl-4-chloro-5-[4-(1H-pyrazol-3-yl)benzylthio]-3(2H)-pyridazinone]
59 | 56 | CC(C)(C)n1ncc(SCc2ccc(C(F)(F)F)cc2)c(Cl)c1=O [Compound 17, 2-t-butyl-4-chloro-5-(4-trifluoromethyl) benzylthio-3(2H)pyridazinone]
100 | 2 | CC(C)(C)n1ncc(SCc2ccc(-c3ncns3)cc2)c(Cl)c1=O [Compound 117, 2-t-butyl-4-chloro-5-[4-(1,2,4-thiadiazol-5-yl)benzylthio]-3(2H)-pyridazinone]
49 | < 1.52 | CC(C)(C)n1ncc(SCc2ccc(-c3csnn3)cc2)c(Cl)c1=O [Compound 115, 2-t-butyl-4-chloro-5-[4-(1,2,3-thiadiazol-4-yl)benzylthio]-3(2H)-pyridazinone]
54 | 6 | COc1cc(OC)nc(-c2ccc(CSc3cnn(C(C)(C)C)c(=O)c3Cl)cc2)n1 [Compound 98, 2-t-butyl-4-chloro-5-[4-[2-(4,6-dimethoxy)pyrimidyl]]benzylthio-3(2H)-pyridazinone]

IC50 [1] [nM] | IC50 [2] [nM] | SMILES
120 | < 1.52 | CC(C)(C)n1ncc(OCc2ccc(OCc3ccc(F)cc3)nc2)c(Cl)c1=O [Compound 49, 2-t-butyl-4-chloro-5-[6-(4-fluorobenzyloxy)-3-pyridyl]methoxy-3(2H)-pyridazinone]
28 | < 1.52 | CC(C)(C)n1ncc(SCc2ccc(-c3ccnc(N)c3)cc2)c(Cl)c1=O [Compound 92, 5-[4-[4-(2-amino)pyridyl]benzylthio]-2-t-butyl-4-chloro-3(2H)-pyridazinone]
120 | < 1.52 | CC(C)(C)n1ncc(SCc2ccc(-c3ccno3)cc2)c(Cl)c1=O [Compound 113, 2-t-butyl-4-chloro-5-[4-(1,2-oxazol-5-yl)benzylthio]-3(2H)-pyridazinone]
84 | 25 | Cc1c(OCc2ccc(C(C)(C)C)cc2)cnn(C(C)(C)C)c1=O [Compound 31, 2-t-butyl-5-(4-t-butyl)benzyloxy-4-methyl-3(2H)pyridazinone]
< 1.52 | < 1.52 | CC(C)(C)n1ncc(OCc2ccc(-c3ccccc3)cc2)c(Cl)c1=O [Compound 18, 2-t-butyl-4-chloro-5-(4-phenyl)benzyloxy-3(2H)pyridazinone]
8 | < 1.52 | CC(C)(C)n1ncc(OCc2ccc(C(=O)c3ccc(Cl)cc3)cc2)c(Cl)c1=O [Compound 73, 2-t-butyl-4-chloro-5-[4-(4-chlorobenzoyl)benzyloxy]-3(2H)-pyridazinone]
560 | 92 | CC(C)(C)OC(=O)Nc1cc(-c2ccc(COc3cnn(C(C)(C)C)c(=O)c3Cl)cc2)ccn1 [Compound 91]
74 | 42 | CC(C)(C)n1ncc(SCc2ccc3ccccc3n2)c(Cl)c1=O [Compound 12, 2-t-butyl-4-chloro-5-(2-quinolyl)methylthio-3(2H)pyridazinone]
< 1.52 | 2 | CC(C)(C)n1ncc(SCc2ccc(-c3ccccc3)cc2)c(Cl)c1=O [Compound 3, 2-t-butyl-4-chloro-5-(4-phenyl)benzylthio-3(2H)pyridazinone]
< 1.52 | < 1.52 | CC(C)(C)n1ncc(SCc2ccc(-c3ccccc3C#N)cc2)c(Cl)c1=O [Compound 13, 2-t-butyl-4-chloro-5-{4-(2-cyanophenyl)} benzylthio-3(2H)pyridazinone]
290 | 53 | CC(C)(C)n1ncc(SCC=Cc2ccccc2)c(Cl)c1=O [Compound 6, 2-t-butyl-4-chloro-5-{(3-phenyl)-2-propenylthio}-3(2H)pyridazinone]
370 | 14 | CC(C)(C)n1ncc(OCc2ccc(-c3csnn3)cc2)c(Cl)c1=O [Compound 116, 2-t-butyl-4-chloro-5-[4-(1,2,3-thiadiazol-4-yl)benzyloxy]-3(2H)-pyridazinone]
< 1.52 | < 1.52 | CC(C)(C)n1ncc(SCc2ccc(C(=O)c3ccc(Cl)cc3)cc2)c(Cl)c1=O [Compound 72, 2-t-butyl-4-chloro-5-[4-(4-chlorobenzoyl)benzylthio]-3(2H)-pyridazinone]
370 | < 1.52 | CC(C)(C)n1ncc(SCc2ccc(-c3cnco3)cc2)c(Cl)c1=O [Compound 119, 2-t-butyl-4-chloro-5-[4-(1,3-oxazol-5-yl)benzylthio]-3(2H)-pyridazinone]
< 1.52 | 4 | CC(C)(C)n1ncc(SCc2ccc(-c3ccccn3)cc2)c(Cl)c1=O [Compound 39, 2-t-butyl-4-chloro-5-{4-(2-pyridyl)benzylthio}-3(2H)-pyridazinone]
5 | 2 | CC(C)(C)n1ncc(OCc2ccc(-c3ccccn3)cc2)c(Cl)c1=O [Compound 42, 2-t-butyl-4-chloro-5-{4-(2-pyridyl)benzyloxy}-3(2H)-pyridazinone]
250 | 210 | CC(C)(C)n1ncc(OCc2ccc(-c3csc(N)n3)cc2)c(Cl)c1=O [Compound 103]

SMILES | IC50 [1] [nM] | IC50 [2] [nM]
CC(C)(C)OC(=O)Nc1cc(-c2ccc(CSc3cnn(C(C)(C)C)c(=O)c3Cl)cc2)ccn1 [Compound 90, 2-t-butyl-4-chloro-5-[4-[4-(2-t-butoxycarbonylamino)pyridyl]benzylthio]-3(2H)-pyridazinone] | 270 | 64
CC(C)(C)n1ncc(OC(CO)c2ccc(-c3ccccc3)cc2)c(Cl)c1=O (stereo not shown) [Compound 83, 2-t-butyl-4-chloro-5-[2-hydroxy-1-(43-biphenyl)]ethoxy-3(2H)-pyridazinone] | 73 | 2
CC(C)(C)n1ncc(OCC(O)c2ccc(-c3ccccc3)cc2)c(Cl)c1=O (stereo not shown) [Compound 82, 2-t-butyl-4-chloro-5-[2-hydroxy-2-(4-biphenyl)]ethoxy-3(2H)-pyridazinone] | 480 | 27
